Test results reported in paper PMC4777262 (Pharmacology Research & Perspectives, 2016).

Tests used:
IMPDH2 = IMPDH2 (Homo sapiens, UniProt P12268); experiment: spectrophotometric NADH production at […] nm; type: biochemical
IMPDH1 = IMPDH1 (Homo sapiens, UniProt P20839); experiment: spectrophotometric NADH production at […] nm; type: biochemical
IMPDH1, sequence (P20839 2-514): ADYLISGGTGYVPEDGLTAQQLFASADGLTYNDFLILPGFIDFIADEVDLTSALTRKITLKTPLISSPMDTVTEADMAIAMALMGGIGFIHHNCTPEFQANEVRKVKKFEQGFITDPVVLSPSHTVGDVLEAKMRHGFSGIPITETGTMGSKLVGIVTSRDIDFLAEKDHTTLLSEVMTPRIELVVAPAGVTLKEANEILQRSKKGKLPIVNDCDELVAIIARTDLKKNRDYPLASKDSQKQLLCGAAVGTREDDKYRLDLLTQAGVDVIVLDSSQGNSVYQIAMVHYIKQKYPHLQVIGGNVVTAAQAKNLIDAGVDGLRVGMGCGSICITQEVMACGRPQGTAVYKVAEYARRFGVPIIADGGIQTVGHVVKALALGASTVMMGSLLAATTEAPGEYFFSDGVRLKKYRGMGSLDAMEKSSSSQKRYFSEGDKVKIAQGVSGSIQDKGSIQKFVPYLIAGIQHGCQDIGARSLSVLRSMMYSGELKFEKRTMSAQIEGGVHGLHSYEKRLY

IMPDH2, sequence (P12268 2-514): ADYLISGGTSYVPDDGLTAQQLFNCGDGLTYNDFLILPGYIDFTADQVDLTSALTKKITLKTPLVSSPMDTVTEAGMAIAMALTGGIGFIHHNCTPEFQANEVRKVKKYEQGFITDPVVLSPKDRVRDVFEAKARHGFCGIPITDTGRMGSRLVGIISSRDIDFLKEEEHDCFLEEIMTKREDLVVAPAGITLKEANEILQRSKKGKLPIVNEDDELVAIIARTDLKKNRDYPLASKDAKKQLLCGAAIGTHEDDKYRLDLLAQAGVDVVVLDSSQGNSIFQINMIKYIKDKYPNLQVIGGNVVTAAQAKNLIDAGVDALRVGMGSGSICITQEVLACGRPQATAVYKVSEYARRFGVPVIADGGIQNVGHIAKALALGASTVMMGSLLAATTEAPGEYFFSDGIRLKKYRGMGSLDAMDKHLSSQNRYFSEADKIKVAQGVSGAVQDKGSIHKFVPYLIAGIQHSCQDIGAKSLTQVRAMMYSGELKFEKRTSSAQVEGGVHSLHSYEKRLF

IC50 (IMPDH2) [nM] | IC50 (IMPDH1) [nM] | Structure (SMILES)
31.8 ± 5.6 | 29 ± 10.3 | NC(=O)c1ncn([C@@H]2O[C@H](COP(=O)(O)O)[C@@H](O)[C@H]2O)c1O [FF‐10501RMP]
 | 26.4 ± 1.5 | COc1c(C)c2c(c(O)c1C/C=C(\C)CCC(=O)O)C(=O)OC2 [Mycophenolic acid, reference compound]
